The values below come from patent US12606561B2, “Substituted pyrazolo[1,5-a][1,3,5]triazines as CDK inhibitors” (QURIENT CO., LTD., priority 2018, dated 2026).

One test deals with A2780. Nature of the test: A2780 viability assay (CellTiter-Glo, 72 hours). It counts as cell-based. The settings on record: Homo sapiens; A2780 cells. The method in brief: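 Cells in RPMI-1640 with 10% FBS were seeded (MV4-11 1×10^4, OVCAR-3 5×10^3, A2780 1×10^3 cells/well) and treated 24 h later with compound at 0.0015–10 uM, final DMSO under 0.1%. After 72 h at 37 °C, viability was read by CellTiter-Glo luminescence, in duplicate.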

The next test has as its target T1, CDK1/Cyclin B (Homo sapiens, UniProt P06493).
T1 construct: purchased Invitrogen PR4768C
Nature of the test: Enzymatic assay for CDK1 (LANCE Ultra kinase assay, FRET based). It counts as biochemical. The settings on record: ATP at Km; read-out: CDK1 enzymatic activity IC50. The method in brief:
(§1)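 TR-FRET (LANCE Ultra) kinase assays with a ULight-labelled peptide substrate and a Europium-labelled anti-phospho antibody. ATP was set at its Km for each kinase. Inhibition was measured on purified CDK/cyclin complexes: CDK7/Cyclin H/MNAT1 and CDK1/Cyclin B.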

Another test relates to OVCAR-3. The test can be described thus: OVCAR-3 viability assay (CellTiter-Glo, 72 hours). It counts as cell-based. As to conditions: Homo sapiens; OVCAR-3 cells. As for the experimental part:
Human […] cell line, MV4-11_(ATCC, Cat #CRL-9591), NSCLC (Non-small cell lung cancer) cell line H460 (ATCC, Cat #HTB-177), A2780 (ECACC, Cat #93112519) and OVCAR-3(ATCC, Cat #HTB-161) were obtained from ATCC. Cells were grown in RPMI-1640 media (Invitrogen, Cat #22400-089) supplemented with 10% FBS (Invitrogen, Cat #10099141) and 1% penicillin/streptomycin (Invitrogen, Cat #15070063) and cultured at 37° C., 5% CO2 in a humidified chamber. All cell lines were routinely tested for mycoplasma.
To effect of the CDK7 inhibitor to inhibit the growth of target cancer cells, viability assay were conducted a 72 hour time period. Briefly, the candidate cell line was plated in 96 well plate at the following density of cells respectively. 1×10^4 cells/well for MV4-11, 5×10^3 for H460 and OVCAR-3, and 1×10^3 for A2780. After 24 hours, the cells were treated with various concentrations of the compound (ranging from 0.0015 uM to 10 uM). DMSO solvent without compound served as a control and final DMSO concentration lest than 0.1%. After 72 hours of incubation at 37° C., 5% CO2 incubator, cells were analyzed for the viability using the CellTiter-Glo Luminescent Cell Viability Assay (Promega, Cat #G7570). All viability assays were performed in duplicate and Luminescence was read using an Envision (Perkin Elmer, USA). Data was analyzed using XLfit software.

In the next test the target is T2, CDK2/Cyclin A (Homo sapiens, UniProt P24941).
T2 construct: purchased Invitrogen PV6290
Nature of the test: Enzymatic assay for CDK2 (LANCE Ultra kinase assay, FRET based). As to conditions: ATP at Km. It counts as biochemical. The method in brief: (§2)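 TR-FRET kinase assay at ATP Km with ULight-MBP peptide (68 nM) and Eu-anti-phospho-MBP antibody; CDK2/Cyclin A at […], CDK5/p25 at […]. 8-dose 4-fold compound dilutions; 60 min kinase reaction at 23° C., EDTA stop, 60 min detection, read at 615/665 nm.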

Another test addresses T3, CDK5/p25 (Homo sapiens, UniProt Q00535).
T3 construct: purchased Invitrogen PR8543B
Nature of the test: Enzymatic assay for CDK5 (LANCE Ultra kinase assay, FRET based). The settings on record: ATP at Km. It counts as biochemical. The method in brief:
as §2

For a further test, the target named is T4, CDK7/Cyclin H/MNAT1 (Homo sapiens, UniProt P50613).
T4 construct: purchased Invitrogen PR6749B
Nature of the test: Enzymatic assay for CDK7 (LANCE Ultra kinase assay, FRET based). It is filed as biochemical. The settings on record: for IC50: ATP at Km. The method in brief: as §1

T4 sequence (P50613 whole entry): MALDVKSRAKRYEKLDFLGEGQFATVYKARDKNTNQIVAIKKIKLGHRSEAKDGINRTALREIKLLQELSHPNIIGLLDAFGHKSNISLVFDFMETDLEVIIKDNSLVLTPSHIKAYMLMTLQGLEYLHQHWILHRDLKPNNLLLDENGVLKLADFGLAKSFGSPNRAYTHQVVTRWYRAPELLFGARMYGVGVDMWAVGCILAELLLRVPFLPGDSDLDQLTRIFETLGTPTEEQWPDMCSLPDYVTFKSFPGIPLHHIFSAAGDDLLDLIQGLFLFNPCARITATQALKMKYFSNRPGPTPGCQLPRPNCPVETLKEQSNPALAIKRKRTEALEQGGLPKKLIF
T4 sequence (P51946 whole entry partner): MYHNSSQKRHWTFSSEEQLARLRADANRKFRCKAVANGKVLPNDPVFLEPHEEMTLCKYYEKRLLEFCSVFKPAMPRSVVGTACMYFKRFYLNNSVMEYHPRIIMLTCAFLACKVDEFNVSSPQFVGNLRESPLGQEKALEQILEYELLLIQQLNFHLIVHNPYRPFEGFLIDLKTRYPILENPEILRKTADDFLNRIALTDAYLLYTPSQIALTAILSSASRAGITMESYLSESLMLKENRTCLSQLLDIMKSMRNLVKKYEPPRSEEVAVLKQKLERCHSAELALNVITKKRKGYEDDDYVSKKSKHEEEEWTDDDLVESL
T4 sequence (P51948 whole entry partner): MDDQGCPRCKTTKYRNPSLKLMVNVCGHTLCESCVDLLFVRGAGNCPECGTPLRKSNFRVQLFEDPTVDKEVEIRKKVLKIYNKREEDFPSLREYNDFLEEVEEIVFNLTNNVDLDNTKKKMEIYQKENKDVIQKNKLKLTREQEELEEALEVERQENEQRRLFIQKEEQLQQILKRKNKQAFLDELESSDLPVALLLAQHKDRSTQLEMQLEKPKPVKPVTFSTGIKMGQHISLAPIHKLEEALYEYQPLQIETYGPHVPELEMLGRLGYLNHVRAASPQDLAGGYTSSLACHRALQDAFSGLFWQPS
T1 sequence (P06493 whole entry): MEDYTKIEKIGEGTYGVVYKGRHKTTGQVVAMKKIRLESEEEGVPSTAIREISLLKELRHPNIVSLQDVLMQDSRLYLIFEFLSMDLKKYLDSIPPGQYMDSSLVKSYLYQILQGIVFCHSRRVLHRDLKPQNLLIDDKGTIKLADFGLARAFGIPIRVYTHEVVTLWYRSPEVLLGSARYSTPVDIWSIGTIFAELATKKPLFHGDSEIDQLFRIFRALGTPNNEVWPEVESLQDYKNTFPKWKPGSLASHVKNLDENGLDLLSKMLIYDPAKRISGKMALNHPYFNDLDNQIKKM
T1 sequence (P14635 whole entry partner): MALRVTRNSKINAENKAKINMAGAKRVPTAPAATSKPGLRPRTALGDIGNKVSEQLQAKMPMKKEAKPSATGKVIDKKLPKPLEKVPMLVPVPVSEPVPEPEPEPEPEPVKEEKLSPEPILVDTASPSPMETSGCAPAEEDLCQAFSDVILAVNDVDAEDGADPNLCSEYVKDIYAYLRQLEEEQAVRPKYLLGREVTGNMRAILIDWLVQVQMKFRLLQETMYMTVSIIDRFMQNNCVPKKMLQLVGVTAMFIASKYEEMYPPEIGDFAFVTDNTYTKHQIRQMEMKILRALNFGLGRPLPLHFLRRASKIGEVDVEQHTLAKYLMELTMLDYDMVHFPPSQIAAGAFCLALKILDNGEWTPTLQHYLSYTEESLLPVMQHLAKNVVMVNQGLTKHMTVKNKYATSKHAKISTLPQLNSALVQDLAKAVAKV
T3 sequence (Q00535 whole entry): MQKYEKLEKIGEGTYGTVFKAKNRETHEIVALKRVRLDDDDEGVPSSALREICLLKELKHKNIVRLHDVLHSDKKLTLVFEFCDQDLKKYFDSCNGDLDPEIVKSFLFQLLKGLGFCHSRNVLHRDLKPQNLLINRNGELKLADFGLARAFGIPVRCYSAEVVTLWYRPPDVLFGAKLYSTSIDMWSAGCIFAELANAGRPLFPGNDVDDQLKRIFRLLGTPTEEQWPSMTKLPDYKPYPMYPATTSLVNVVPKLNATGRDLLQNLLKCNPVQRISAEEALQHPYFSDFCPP
T3 sequence (Q15078 99-307 partner limits assumed): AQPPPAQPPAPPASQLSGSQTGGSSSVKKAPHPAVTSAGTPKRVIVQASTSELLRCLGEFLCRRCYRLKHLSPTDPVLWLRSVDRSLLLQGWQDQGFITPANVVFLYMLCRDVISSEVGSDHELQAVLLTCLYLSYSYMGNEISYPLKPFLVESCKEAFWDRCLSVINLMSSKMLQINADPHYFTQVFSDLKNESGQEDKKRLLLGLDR

With `Cc1nc(NCc2ccccc2-c2nccc3cc(NC(=O)/C=C/CN(C)C)ccc23)n2ncc(C(C)C)c2n1` [Compound 167], the IC50 in the test on A2780 was less than 1 µM; on CDK1/Cyclin B, greater than 1 µM; in the test with OVCAR-3, less than 1 µM; against CDK2/Cyclin A, greater than 1 µM; against CDK5/p25, greater than 1 µM; against CDK7/Cyclin H/MNAT1, 0.1 to 1 µM. Also, the “CDK1/CDK7: Selectivity of CDK7 inhibition over CDK1 inhibition” value on CDK7/Cyclin H/MNAT1 was “B (B indicates 50 < [fold] ≤ 500)”. Further, the “CDK2/CDK7: Selectivity of CDK7 inhibition over CDK2 inhibition” value on CDK7/Cyclin H/MNAT1 is “B (B indicates 50 < [fold] ≤ 500)”. Besides, the “CDK5/CDK7: Selectivity of CDK7 inhibition over CDK5 inhibition” value at CDK7/Cyclin H/MNAT1 is “B (B indicates 50 < [fold] ≤ 500)”.
For `C=CC(=O)Nc1ccc2c(-c3ccccc3CNc3cc(N[C@H]4CC[C@H](OC)CC4)nc4c(C(C)C)cnn34)nccc2c1` [Compound 116], the IC50 with A2780 was less than 1 µM; on CDK1/Cyclin B it was greater than 1 µM; in the test with OVCAR-3 it was less than 1 µM; against CDK2/Cyclin A it was greater than 1 µM; against CDK5/p25, greater than 1 µM; on CDK7/Cyclin H/MNAT1 it was less than 0.1 µM. Further, the “CDK1/CDK7: Selectivity of CDK7 inhibition over CDK1 inhibition” value on CDK7/Cyclin H/MNAT1 is “A (A indicates [fold] > 500)”. Further, at CDK7/Cyclin H/MNAT1, the “CDK2/CDK7: Selectivity of CDK7 inhibition over CDK2 inhibition” value is “A (A indicates [fold] > 500)”. Besides, the “CDK5/CDK7: Selectivity of CDK7 inhibition over CDK5 inhibition” value at CDK7/Cyclin H/MNAT1 is “A (A indicates [fold] > 500)”.
Consider `CC(C)c1cnn2c(NCc3ccccc3-c3nccc4cc(NC(=O)/C=C/CN(C)C)ccc34)nc(N[C@@H]3CC[C@@H](C)NC3)nc12` [Compound 154], for which the IC50 in the test on A2780 is less than 1 µM; at CDK1/Cyclin B it was greater than 1 µM; in the test on OVCAR-3 it was 1 to 10 µM; at CDK2/Cyclin A, greater than 1 µM; on CDK5/p25, greater than 1 µM; on CDK7/Cyclin H/MNAT1 it was less than 0.1 µM. On CDK7/Cyclin H/MNAT1, the “CDK1/CDK7: Selectivity of CDK7 inhibition over CDK1 inhibition” value is “A (A indicates [fold] > 500)”. On CDK7/Cyclin H/MNAT1, the “CDK2/CDK7: Selectivity of CDK7 inhibition over CDK2 inhibition” value was “A (A indicates [fold] > 500)”. For the same compound, the “CDK5/CDK7: Selectivity of CDK7 inhibition over CDK5 inhibition” value on CDK7/Cyclin H/MNAT1 is “A (A indicates [fold] > 500)”.
In the case of `CC(C)c1cnn2c(NCc3ccccc3-c3nccc4cc(NC(=O)/C=C/CN(C)C)ccc34)nc(NC3CC4CCC(C3)N4C)nc12` (stereo not drawn) [Compound 130], the IC50 with A2780 is less than 1 µM; at CDK1/Cyclin B, greater than 1 µM; in the test with OVCAR-3, 1 to 10 µM; against CDK2/Cyclin A it was greater than 1 µM; on CDK5/p25 it was greater than 1 µM; at CDK7/Cyclin H/MNAT1, less than 0.1 µM. Moreover, the “CDK1/CDK7: Selectivity of CDK7 inhibition over CDK1 inhibition” value on CDK7/Cyclin H/MNAT1 is “A (A indicates [fold] > 500)”. Also, the “CDK2/CDK7: Selectivity of CDK7 inhibition over CDK2 inhibition” value at CDK7/Cyclin H/MNAT1 is “A (A indicates [fold] > 500)”. In addition, the “CDK5/CDK7: Selectivity of CDK7 inhibition over CDK5 inhibition” value on CDK7/Cyclin H/MNAT1 was “A (A indicates [fold] > 500)”.
Regarding `CC(C)c1cnn2c(NCc3ccccc3-c3nccc4cc(NC(=O)/C=C/CN(C)C)ccc34)nc(N3CCC(C#N)CC3)nc12` [Compound 105], the IC50 is less than 1 µM in the test with A2780; greater than 1 µM on CDK1/Cyclin B; less than 1 µM with OVCAR-3; greater than 1 µM at CDK2/Cyclin A; greater than 1 µM on CDK5/p25; 0.1 to 1 µM at CDK7/Cyclin H/MNAT1. For the same compound, the “CDK1/CDK7: Selectivity of CDK7 inhibition over CDK1 inhibition” value on CDK7/Cyclin H/MNAT1 was “B (B indicates 50 < [fold] ≤ 500)”. Also, the “CDK2/CDK7: Selectivity of CDK7 inhibition over CDK2 inhibition” value at CDK7/Cyclin H/MNAT1 was “B (B indicates 50 < [fold] ≤ 500)”. Moreover, the “CDK5/CDK7: Selectivity of CDK7 inhibition over CDK5 inhibition” value at CDK7/Cyclin H/MNAT1 was “B (B indicates 50 < [fold] ≤ 500)”.
`C=C(F)C(=O)Nc1ccc2c(-c3ccccc3CNc3nc(N4CCC(OC(C)C)CC4)nc4c(C(C)C)cnn34)nccc2c1` [Compound 89]: the IC50 was 1 to 10 µM in the test on A2780; greater than 1 µM on CDK1/Cyclin B; 1 to 10 µM in the test with OVCAR-3; greater than 1 µM against CDK2/Cyclin A; greater than 1 µM on CDK5/p25; greater than 1 µM against CDK7/Cyclin H/MNAT1. Besides, the “CDK1/CDK7: Selectivity of CDK7 inhibition over CDK1 inhibition” value on CDK7/Cyclin H/MNAT1 was “C (C indicates [fold] ≤ 50)”. Also, the “CDK2/CDK7: Selectivity of CDK7 inhibition over CDK2 inhibition” value on CDK7/Cyclin H/MNAT1 is “C (C indicates [fold] ≤ 50)”. Besides, the “CDK5/CDK7: Selectivity of CDK7 inhibition over CDK5 inhibition” value on CDK7/Cyclin H/MNAT1 is “C (C indicates [fold] ≤ 50)”.
